ChEMBL document CHEMBL1141727, “Isolation and cytotoxic evaluation of marine sponge-derived norterpene peroxides” (J Nat Prod, 1998)

Experiments:
Type in all cases: functional
CCRF-CEM = test: Growth inhibition of human CCRF-CEM cells
HL-60(TB) = test: Growth inhibition of human HL-60(TB) cells
K562 = test: Growth inhibition of human K562 cells
MOLT-4 = test: Growth inhibition of human MOLT4 cells
[1] = Growth inhibition of human […] cells
SR = test: Growth inhibition of human SR cells
A549 = test: Growth inhibition of human A549 cells
EKVX = test: Growth inhibition of human EKVX cells
HOP-62 = test: Growth inhibition of human HOP62 cells
HOP-92 = test: Growth inhibition of human HOP92 cells
NCI-H226 = test: Growth inhibition of human NCI-H226 cells
NCI-H23 = test: Growth inhibition of human NCI-H23 cells
NCI-H322M = test: Growth inhibition of human NCI-H322M cells
NCI-H522 = test: Growth inhibition of human NCI-H522 cells
COLO 205 = test: Growth inhibition of human COLO205 cells
HCC 2998 = test: Growth inhibition of human HCC2998 cells
HCT-116 = test: Growth inhibition of human HCT116 cells
HCT-15 = test: Growth inhibition of human HCT15 cells
HT-29 = test: Growth inhibition of human HT-29 cells
KM12 = test: Growth inhibition of human KM12 cells
SW-620 = test: Growth inhibition of human SW620 cells
SF-295 = test: Growth inhibition of human SF295 cells
SF-539 = test: Growth inhibition of human SF539 cells
SNB-19 = test: Growth inhibition of human SNB19 cells
SNB-75 = test: Growth inhibition of human SNB75 cells
U-251 = test: Growth inhibition of human U251 cells
LOX IMVI = test: Growth inhibition of human LOXIMVI cells
Malme-3M = test: Growth inhibition of human MALME-3M cells
M14 = test: Growth inhibition of human M14 cells
SK-MEL-2 = test: Growth inhibition of human SK-MEL-2 cells
SK-MEL-28 = test: Growth inhibition of human SK-MEL-28 cells
SK-MEL-5 = test: Growth inhibition of human SK-MEL-5 cells
UACC-257 = test: Growth inhibition of human UACC257 cells
UACC-62 = test: Growth inhibition of human UACC62 cells
IGROV-1 = test: Growth inhibition of human IGROV1 cells
OVCAR-3 = test: Growth inhibition of human OVCAR-3 cells
OVCAR-4 = test: Growth inhibition of human OVCAR4 cells
OVCAR-5 = test: Growth inhibition of human OVCAR5 cells
OVCAR-8 = test: Growth inhibition of human OVCAR8 cells
SK-OV-3 = test: Growth inhibition of human SKOV3 cells
786-0 = test: Growth inhibition of human 786-0 cells
A498 = test: Growth inhibition of human A498 cells
ACHN = test: Growth inhibition of human ACHN cells
CAKI-1 = test: Growth inhibition of human Caki1 cells
RXF 393 = test: Growth inhibition of human […] cells
TK-10 = test: Growth inhibition of human TK10 cells
UO-31 = test: Growth inhibition of human UO31 cells
DU-145 = test: Growth inhibition of human DU145 cells
MCF7 = test: Growth inhibition of human MCF7 cells
[2] = Growth inhibition of human MCF7/ADR resistant cells; settings: NCI/ADR-RES
MDA-MB-231 = test: Growth inhibition of human MDA-MB-231 cells
MDA-MB-435 = test: Growth inhibition of human MDA-MB-435 cells
L1210 = test: Growth inhibition of mouse L1210 cells assessed as zone units at 50 ug/disk by disk diffusion agar colony formation assay
P388 = test: Growth inhibition of mouse P388 cells assessed as zone units at 50 ug/disk by disk diffusion agar colony formation assay
PO3 = test: Growth inhibition of mouse PO3 cells assessed as zone units at 50 ug/disk by disk diffusion agar colony formation assay
[3] = Growth inhibition of human H125 cells assessed as zone units at 50 ug/disk by disk diffusion agar colony formation assay

C=C1CCCC(C)(C)C1(O)CC/C(C)=C/CC[C@]1(C)CC[C@@H]([C@@H](C)C(=O)OC)OO1 (stereo partly specified) [MUQUBILIN B]
GI50 (CCRF-CEM): > 17.5 µM
GI50 (HL-60(TB)): > 17.5 µM
GI50 (K562): > 17.5 µM
GI50 (MOLT-4): > 17.5 µM
GI50 [1]: > 17.5 µM
GI50 (SR): > 17.5 µM
GI50 (A549): > 17.5 µM
GI50 (EKVX): > 17.5 µM
GI50 (HOP-62): > 17.5 µM
GI50 (HOP-92): > 17.5 µM
GI50 (NCI-H226): > 17.5 µM
GI50 (NCI-H23): > 17.5 µM
GI50 (NCI-H322M): > 17.5 µM
GI50 (NCI-H522): 12.8 µM
GI50 (COLO 205): > 17.5 µM
GI50 (HCC 2998): > 17.5 µM
GI50 (HCT-116): > 17.5 µM
GI50 (HCT-15): > 17.5 µM
GI50 (HT-29): > 17.5 µM
GI50 (KM12): > 17.5 µM
GI50 (SW-620): > 17.5 µM
GI50 (SF-295): > 17.5 µM
GI50 (SF-539): > 17.5 µM
GI50 (SNB-19): > 17.5 µM
GI50 (SNB-75): 15 µM
GI50 (U-251): > 17.5 µM
GI50 (LOX IMVI): 5.22 µM
GI50 (Malme-3M): > 17.5 µM
GI50 (M14): > 17.5 µM
GI50 (SK-MEL-2): > 17.5 µM
GI50 (SK-MEL-28): > 17.5 µM
GI50 (SK-MEL-5): > 17.5 µM
GI50 (UACC-257): > 17.5 µM
GI50 (UACC-62): > 17.5 µM
GI50 (IGROV-1): 2420 nM
GI50 (OVCAR-3): > 17.5 µM
GI50 (OVCAR-4): > 17.5 µM
GI50 (OVCAR-5): > 17.5 µM
GI50 (OVCAR-8): > 17.5 µM
GI50 (SK-OV-3): > 17.5 µM
GI50 (786-0): > 17.5 µM
GI50 (A498): > 17.5 µM
GI50 (ACHN): > 17.5 µM
GI50 (CAKI-1): > 17.5 µM
GI50 (RXF 393): > 17.5 µM
GI50 (TK-10): > 17.5 µM
GI50 (UO-31): > 17.5 µM
GI50 (DU-145): > 17.5 µM
GI50 (MCF7): > 17.5 µM
GI50 [2]: > 17.5 µM
GI50 (MDA-MB-231): > 17.5 µM
GI50 (MDA-MB-435): > 17.5 µM
Activity (L1210): 80 Zone units
Activity (P388): 80 Zone units
Activity (PO3): 90 Zone units
Activity [3]: 0 Zone units
